# Entries after “also recorded” stand apart in the source; their conditions may differ.
# Experiments:
# [1] = test system: mice exposed to unpredictable chronic mild stress (UCMS); test: Open field test after UCMS; type: in vivo, C57BL/6J mice
# α5 protein = test: Total and surface α5 protein, surface biotinylation and Western blotting; type: in vivo, C57BL/6J mice; conditions: acute or chronic treatment
# Experimental: Dissected hippocampi were processed as described in [Pabba et al. (2014)] with minor modifications.
# The following antibodies and their dilutions were used in this study: rabbit polyclonal anti-α5 (1:750; Thermo Fisher Scientific, Waltham, MA, USA), rabbit monoclonal anti-β1-[…] (NK-ATPase) (1:1000; Abcam, Cambridge, MA, USA), and mouse monoclonal anti-β-actin (1:100; Abcam, Cambridge, MA, USA).
# Western blotting was performed using 5 μg of protein resolved on 8% SDS-PAGE and transferred onto PVDF membranes and developed using IR-Dye conjugated secondary antibody and detection using LI-COR (NE, USA). Quantification of bands was performed using Image Studio^TM Software (LI-COR, NE, USA). We analyzed α5 surface biotinylation in vehicle versus drug treated mice (N = 6 females and 4 males per group). Total α5 band intensities were normalized to β-actin, whereas surface α5 band intensities were normalized to NK-ATPase.
# [2] = test system: mice exposed to unpredictable chronic mild stress (UCMS); test: Elevated plus maze after UCMS; type: in vivo, C57BL/6J mice; conditions: for EPM percentage of entries into open arms: first cohort (Figure 2)
# [3] = test system: mice exposed to unpredictable chronic mild stress (UCMS); test: Novelty suppressed feeding test after UCMS; type: in vivo, C57BL/6J mice
# Description: (§1) Mice underwent between 6 and 8 weeks of UCMS (see Supplementary Table S1 for example UCMS schedule). Animals were exposed to 2–3 mild stressors each day throughout the light/dark cycle, including wet bedding, brief restraint, forced bath, no bedding, reduced space, and predator odor over a period of several weeks (see details in Supplementary Material) ([Edgar et al., 2011]; [Lin and Sibille, 2015]). Female mice were housed 5 per cage, and male mice were housed 4 per cage in Optimice cages (Animal Care Systems Inc, Centennial, CO, USA). In experiment 3.4, UCMS was augmented with single-cage isolation housing in male mice beginning at the fourth week of UCMS until sacrifice. A timeline of experimental procedures can be found in Figure 2A (including timeline of the sections “ Drug Treatment” and “Behavioral Testing”).
# (§2) At the start of the third week of UCMS and continuing for between 28 and 42 days (including time for behavioral tests, see “Behavioral Testing”) until sacrifice, mice received daily i.p injections of vehicle (85% ddH2O, 14% propylene glycol, 1% Tween 80) or 30 mg/kg SH-053-2’F-R-CH3 (α5-PAM; synthesized in the laboratory of Dr. James M. Cook) in a volume of […]. All animals received a single daily injection (chronic α5-PAM treated mice received SH-053-2’F-R-CH3, acute α5-PAM and vehicle treated animals received vehicle injections) between 8:00AM and 9:00AM until the start of behavioral testing. After 3 weeks of treatment, all mice began receiving a second injection 30 min prior to behavioral testing. All animals received a second injection of either vehicle (for chronic α5-PAM treated animals and UCMS-vehicle treated animals) or α5-PAM acutely (α5-PAM acute animals). All injections were performed using ultra-fine insulin syringes (31 gauge, 6 mm; Becton, Dickinson and Company, Franklin Lakes, NJ, USA).
# (§3) After 5 weeks of UCMS, including 3 weeks of drug treatment, animals were assessed in a battery of behavioral tests (each test separated by 48 h, UCMS continued throughout behavioral testing for a period of 1–3 weeks). These tests included: Elevated plus maze: under red light, animals were placed on a plus maze with two open and two closed arms (30 cm × 5 cm). Number of entries into all arms as well as the time spent in the open arms was recorded for 10 min. Open field test: The open field test was conducted in a 43 cm ×43 cm arena under bright (800 lux) light. Using AnyMaze software (Stoelting, Wood Dale, IL, USA), the center 50% of the arena was identified and animals were tracked for 10 min. Novelty suppressed feeding test: Mice were food deprived for 24 h the day before testing. Testing occurred in brightly lit (∼1000 lux) open field arenas covered in bedding. A normal food pellet was placed into the brightly lit center and the latency for an animal to approach and bite the pellet was recorded over a 12 min session. Immediately following the session, animals were placed into their home cage and allowed to eat a weighed food pellet to assess hunger drive. Cookie test: The cookie test apparatus contains three identically sized chambers (40 cm × 20 cm × 20 cm) separated by two offset dividers. The outer walls of each chamber were clear and the only difference between each was the color of the divider, with one divider shaded white and the other black. One week prior to experimentation, mice were habituated in their home cage to a piece (2 ± 1 g) of Keebler Fudge Stripe Cookie (Kellogg’s Company, Battle Creek, MI, USA). On the first and second day of testing, a piece of cookie (2 ± 1 g) was placed into the chamber separated by the black divider. Mice were then placed into the opposing chamber separated by the white divider and monitored for 10 min. The latency for each mouse to bite the cookie was recorded. […]
# [4] = test system: mice exposed to unpredictable chronic mild stress (UCMS); test: Cookie test after UCMS; type: in vivo, C57BL/6J mice
# Description: as §1, §2, §3
# [5] = Plasma protein and brain tissue binding, rapid equilibrium dialysis; type: in vitro ADME, mouse
# Description: The rapid equilibrium dialysis assay used to determine free fraction of α5-PAM in mouse plasma and brain tissue was the same as in [Obradovic et al. (2014)].
# [6] = female UCMS mice, chronic treatment, vs UCMS-vehicle, second cohort (Figure 3)
# [7] = male UCMS mice, 37.5 mg/kg acute or chronic (Figure 4B), 37.5 mg/kg
# [8] = male mice, UCMS plus single housing, chronic treatment (Figure 4A)
# [9] = female UCMS mice, acute treatment, vs UCMS-vehicle, second cohort (Figure 3)
# [10] = male UCMS mice, acute or chronic 30 mg/kg i.p., first cohort (Figure 2)
compound,measurement,setting,value
C#Cc1ccc2c(c1)C(c1ccccc1F)=N[C@H](C)c1c(C(=O)OCC)ncn1-2 [α5-PAM],OFT percentage of total distance traveled in the center,[1]; [6],increases; also recorded: higher percentage of their total distance traveled
same,OFT behavior,"[1]; female and male UCMS mice, acute or chronic 30 mg/kg i.p., first cohort (Figure 2)",did not detect any significant main effects; also recorded: No effect
same,"OFT, stress-induced behavior",[1]; [7],No change; also recorded: failed to reduce
same,"OFT, UCMS-induced behavioral phenotype",[1]; [8],did not alter; also recorded: No significant effect
same,"total or surface α5 protein expression, hippocampus",α5 protein; female UCMS mice,no difference; also recorded: No significant effect
same,"total or surface α5 protein expression, hippocampus",α5 protein; male UCMS mice,no difference; also recorded: No significant effect
same,EPM open arm behavior,"[2]; female UCMS mice, acute or chronic treatment, second cohort with non-stressed controls (Figure 3)",no effect
same,EPM percentage of entries into open arms,"[2]; female UCMS mice, chronic 30 mg/kg i.p., vs UCMS-vehicle",anti-stress effect; also recorded: increased percentage of open arm entries
same,"EPM, stress-induced behavior",[2]; [7],No change; also recorded: failed to reduce
same,EPM percentage of entries into open arms,"[2]; male UCMS mice, acute or chronic 30 mg/kg i.p.",No significant differences; also recorded: no effect
same,"EPM, UCMS-induced behavioral phenotype",[2]; [8],did not alter; also recorded: No significant effect
same,NSF latency to bite food pellet,"[3]; female UCMS mice, acute 30 mg/kg i.p. 30 min before test, vs UCMS-vehicle, first cohort (Figure 2)",reduced the latency to bite; also recorded: reducing latency to bite
same,NSF latency to bite food pellet,[3]; [9],reduces; also recorded: reduced the latency to bite
same,NSF latency to bite food pellet,"[3]; female UCMS mice, chronic 30 mg/kg i.p., vs UCMS-vehicle, first cohort (Figure 2)",reduced the latency to bite; also recorded: reducing latency to bite
same,NSF latency to bite food pellet,[3]; [6],reduces; also recorded: reduced the latency to bite
same,"NSF, stress-induced behavior",[3]; [7],No change; also recorded: failed to reduce
same,NSF latency to bite food pellet,[3]; [10],no effect
same,"NSF, UCMS-induced behavioral phenotype",[3]; [8],did not alter; also recorded: No significant effect
same,cookie test latency to bite the cookie,"[4]; female UCMS mice, acute 30 mg/kg i.p., first cohort (Figure 2)",a trend in the same direction
same,cookie test latency to bite the cookie,[4]; [9],reduces the latency to bite; also recorded: significantly reduced the latency to bite
same,cookie test latency to bite the cookie,"[4]; female UCMS mice, chronic 30 mg/kg i.p., first cohort (Figure 2)",reduced the latency to bite; also recorded: significant decrease
same,cookie test latency to bite the cookie,[4]; [6],reduces the latency to bite; also recorded: significantly reduced the latency to bite
same,"cookie test, stress-induced behavior",[4]; [7],No change; also recorded: failed to reduce
same,cookie test latency to bite the cookie,[4]; [10],No significant effect; also recorded: No significant difference
same,"cookie test, UCMS-induced behavioral phenotype",[4]; [8],did not alter; also recorded: No significant effect
same,"free fraction, brain tissue",[5]; mouse brain tissue,2.73%
same,"free fraction, plasma",[5]; mouse plasma,7.44%
